The source of these data is a melting point compilation (Tetko et al.; mined from patent text by program, amines drawn as free bases though some values may be those of a salt).

One may read the melting point as the temperature of the solid-liquid transition.

Residues, ends and D or L forms follow the SMILES beside them. *: point of attachment. Boc = CC(C)(C)OC(=O)*

In turn, `O=C(c1ccc(C(F)(F)F)cc1Sc1ccccc1)c1cnoc1C1CC1` came in with a melting point of 115 °C.
`CCCCCCCCCCCCc1cc(O)ccc1S` had a melting point of 75 to 76 °C.
On to `COc1ccc(C(=O)C2Cc3cc(OC)ccc3C2=O)cc1` (stereo not drawn), for which the melting point was 160 to 162 °C.
Compound `CCOC(=O)C(O)=Cc1ccc(Cc2ccc(F)cc2)cn1` came in with a melting point of 94 to 96 °C.
The compound `FC(F)(F)c1cccnc1OCc1ccnc2cc(Cl)ccc12` yielded a melting point of 125 to 127 °C.
`N#CCCCN(Cc1ccccc1)Cc1ccccc1` had a melting point of 45 to 46 °C.
The compound `CCOCn1c(C(F)(F)F)c(C#N)c2ccc(Cl)cc21` came in with a melting point of 83 to 86 °C.
Then `O=C(CC(=O)OCc1ccccc1)OCc1ccccc1`, with 104 to 106 °C; and `Cc1cc(NC(=O)CC(C)(C)C)c2c(c1)C(c1ccc(C(C)C)cc1)C(C)(C)O2` (stereo not drawn), with 64 to 68 °C.
Regarding `O=S(=O)(c1ccc(Cl)cc1)C(CCCCF)c1cc(F)ccc1F` (stereo not drawn), the melting point was 77 to 78 °C.
Consider `CC[C@H]1CN(c2c(F)cc3c(=O)c(C(=O)O)cn(C4CC4)c3c2C)C[C@H]1N`, for which the melting point lay in the range of 148 to 150 °C.
Under `NC(=O)[C@@H]1C[C@@H]2C[C@@H]2N1C(=O)[C@@H](NC(=O)OCc1ccccc1)C12CC3CC(CC(O)(C3)C1)C2` stands 105 to 106 °C.
In the case of `COc1cccnc1C(=O)NCCNC(=O)OC(C)(C)C`, the melting point came to 115 °C.
`CCCCCCCCCCCCCCOc1ccc(CC(=O)Nc2cccc(-c3nccs3)c2)cc1` returned a melting point of 128 to 131 °C.
Then `Cc1ccc(C(=O)NNC(=O)c2ccccc2Cl)cc1`, with 204 to 206 °C; and `O=C(NS(=O)(=O)N1CCCCC1)C1=NN(c2ccc(Cl)cc2)C(c2ccccc2)C1` (stereo not drawn), with 176 to 179 °C.
Then `COC1C(OC(=O)c2ccccc2)C(COC(=O)c2ccccc2)OC1n1cc(C)c(=O)[nH]c1=O` (stereo not drawn), with 128 to 130 °C; and `Cc1cc(-c2ccc(Cl)c(Cl)c2)nc(-n2cnc(-c3cccc(S(N)(=O)=O)c3)c2)n1`, with 210 °C; and `CCCCc1nc(Cl)c(CO)n1Cc1ccc(-c2cccc(C(=O)O)c2)cc1`, with 180 to 181 °C.
The compound `Cn1c(C(F)(F)F)ccc(-c2cc(NS(C)(=O)=O)c(Cl)cc2F)c1=O` displayed a melting point of 113 to 114 °C.
Under `N#CC(Br)c1ccc(Cl)cc1` (stereo not drawn) stands 46 to 49 °C; under `Cc1c[nH]c2c1C(=O)CC(c1ccccc1F)C2` (stereo not drawn), 198 to 200 °C; under `COc1cccc(Cl)c1-c1cc2c(c3c1C(=O)NC3=O)c1cc(O)ccc1n2CCCBr`, 286 to 288 °C.
The compound `Cc1cc2c(cc1Br)C(O)CC(C)(C)O2` (stereo not drawn) registered a melting point of 92 to 93 °C.
As to `c1ccc2cc(CCNc3ncnc4ccccc34)ccc2c1`, the melting point was in the range of 172 to 174 °C.
With `CC(C)Sc1cc2c(cc1Cl)N=C(C(N)=O)NS2(=O)=O`, the melting point fell in the range of 279 to 280 °C.
On to `CCCCCOc1cc(-n2c(=O)cc(C(F)(F)F)n(C)c2=O)c(F)cc1Cl`, for which the melting point is 64 to 66 °C.
Under `O=C(O)COc1ccc(C2=CC(=O)CC(c3ccc(F)cc3)C2)c(Cl)c1Cl` (stereo not drawn) stands 190 to 192 °C.
Consider `CN(C(=S)Oc1ccc(Cl)c(C(C)(C)C)c1)c1ccccc1`, for which the melting point lay in the range of 65 to 67 °C.
Regarding `O=C(CNC(=O)c1ccccc1)NC1CCN(CCc2c[nH]c3ccccc23)CC1`, the melting point fell in the range of 236 to 240 °C.
Under `CC(O)c1onc(-c2ccccc2Cl)c1C(=O)c1nnn(Cc2cc(C(F)(F)F)cc(C(F)(F)F)c2)c1N1CCOCC1` (stereo not drawn) stands 145 to 146 °C; under `CN1C(=O)CC[C@]2(C)c3ccc(C=Cc4cncc5ccccc45)cc3CC[C@@H]12`, 183 to 185 °C.
Compound `CCN1C(=O)C(C)(C)C(=O)N(C)c2cc(CN(CCn3ccc4oc(C)cc4c3=O)Cc3ccc(OC)nc3C)ccc21` had a melting point of 155 to 156 °C.
In the case of `CC(C)(C)OC(=O)N1CCN(C(=O)OC(C)(C)C)C(C(=O)O)C1` (stereo not drawn), the melting point was in the range of 231 to 233 °C.
On to `NS(=O)(=O)c1ccc(N2CCN(Cc3ccc4c(c3)NC(=O)CO4)CC2)cc1`, for which the melting point lay in the range of 150 to 153 °C.
`COc1ccccc1-c1ccc2cnc(Nc3ccc4c(c3)N3CCC4CC3)nn12`: the melting point is 89 to 95 °C.
In turn, `C=CCOc1ccc(C(=O)N[C@@H](C)c2cccc3ccccc23)cc1` gave a melting point of 141 to 143 °C.
The compound `C/C(=C\C=C\C#N)c1ccc(OCc2nc(-c3ccccc3)oc2C)cc1` yielded a melting point of 134 to 136 °C.
Compound `O=C(OCCN1C(=O)c2ccccc2C1=O)c1cccc2c(=O)c(OCCN3C(=O)c4ccccc4C3=O)c(-c3ccc(OCc4ccc5ccccc5n4)cc3)oc12` showed a melting point of 211 to 212 °C.
`COc1ccccc1NC(=O)c1ccc(C)cc1` returned a melting point of 72.5 to 74.5 °C.
Then `CCOC(=O)c1cc2c(CC)nc(CC)cc2n(Cc2ccc(-c3ccccc3-c3nnn(C(c4ccccc4)(c4ccccc4)c4ccccc4)n3)cc2)c1=O`, with 110 to 112 °C.
`CSCCC(NC(=O)C(CC(C)C)NC(=O)CNC(=O)C(NC(=O)C(Cc1ccccc1)NC(=O)C(C)NC(=O)OC(C)(C)C)C(C)C)C(=O)O` (stereo not drawn) (Boc-AFVGLM-OH; configuration not given here) came in with a melting point of 252 to 281 °C.
`CCC(=CC(CNC(=O)c1cccnc1SC)=NO)C(C)[N+](=O)[O-]` (stereo not drawn) showed a melting point of 161 to 163 °C.
Then `CC(Oc1ncn(-c2ccccc2Cl)n1)C(=O)O` (stereo not drawn), with 104 to 106 °C; and `CCCCc1nn(-c2cc(N)ccc2Cl)c(=O)n1Cc1ccc(-c2ccccc2S(=O)(=O)NC(=O)OC(C)(C)C)cc1F`, with 208 to 210 °C; and `Cc1nn(CC(F)(F)F)c(-c2ccc(F)cc2)c1-c1ccc2c(c1)NC(=O)CO2`, with 174 °C.
In turn, `O=C(NC(CO)CNS(=O)(=O)c1ccc(Oc2ccccc2)cc1)OCc1ccccc1` (stereo not drawn) showed a melting point of 86 to 89 °C.
Compound `C1=C(c2ccc3ccccc3c2)CCN(Cc2n[nH]c3ccccc23)C1` gave a melting point of 225 to 227 °C.
As to `COC(=O)c1ccc2c(c1)CCC(C(N)=O)C2` (stereo not drawn), the melting point lay in the range of 162 to 164 °C.
Then `CCCCc1ncc(/C=C(\Cc2cccs2)C(=O)O)n1Cc1cc(Cl)c(C(=O)O)cc1Cl`, with 145 °C.
Then `NC1CCN(c2cccc(Cl)n2)CC1`, with 36 to 38 °C; and `CCCN1C(=O)C2CC2(c2ccc(N)cc2)C1=O` (stereo not drawn), with 97 °C; and `CC(=O)Nc1ccc(S(=O)(=O)NCc2noc(-c3c4ccccc4nn3CCn3ccnc3)n2)cc1`, with 160 to 161 °C.
In turn, `COc1ccc(-c2c(NC(=O)Nc3ccc(F)cc3F)cnc3ccc(Cl)cc23)c(OC)c1OC` showed a melting point of 120 to 122 °C.
Under `CN1[C@H]2CC[C@@H]1[C@H](c1nc(-c3ccncc3)no1)[C@@H](c1ccc3c(c1)OCO3)C2` stands 110 to 112 °C; under `CC1(C)NC(=O)OC12CCNCC2`, 38 to 40 °C.
In turn, `COc1ccccc1N1CCN(CCCC2CCc3onc(-c4ccc(F)cc4)c3C2=O)CC1` (stereo not drawn) showed a melting point of 107 to 108 °C.
Regarding `NC(C=CP(=O)(O)O)(CO)CCc1ccc(Sc2cccc(OCc3ccccc3)c2)cc1Cl` (stereo not drawn), the melting point was in the range of 245 to 248 °C.
Compound `CC(=O)Nc1ccc(Cl)c2c1CN(C)C2` showed a melting point of 147 to 150 °C.
For `O=C1CC(c2ccc(O)cc2)=Nc2ccc(N3CCOCC3)cc21`, the melting point lay in the range of 340 to 342 °C.
For the compound `CCCc1c2c(cc3c(=O)cc(C(=O)OCC)oc13)CC(C(=O)OCC)CC2` (stereo not drawn), the melting point fell in the range of 89.5 to 90.5 °C.
For the compound `COc1cccc2c3c(c(=O)[nH]c12)CCN3c1cccc(C)c1`, the melting point was in the range of 155 to 157 °C.
On to `CC1(C)CCCC1CNC(=O)C=Cc1ccc(C(=O)O)cc1` (stereo not drawn), for which the melting point was in the range of 138 to 140 °C.
Then `COc1ccc2c(c1OCc1ccc(C(=O)O)cc1)CC(C(=O)O)N(C(=O)C(c1ccccc1)c1ccccc1)C2` (racemic), with 190 to 192 °C.
`CC1=CC(C)(C)c2ccc(Oc3ccc([N+](=O)[O-])cc3)cc2O1` had a melting point of 80 °C.
`NS(=O)(=O)c1ccc(-c2cnn(Cc3ccc(F)cc3F)c(=O)c2-c2ccc(F)cc2)cc1` displayed a melting point of 236 to 238 °C.
Regarding `COC(=O)c1c(Cl)cc(Cl)cc1NC(=O)CSc1ccccc1C`, the melting point was in the range of 93 to 94 °C.
In turn, `Cc1cc(Cl)c(C(=O)c2cc(C)c(C)cc2Cl)cc1C` yielded a melting point of 148 to 149 °C.
The compound `N#Cc1c(F)cccc1S(=O)(=O)N(Cl)Cl` showed a melting point of 149 to 152 °C.
Compound `CCCCCN1C(=O)C2(COc3cc(F)c(F)cc32)c2ccccc21` (stereo not drawn) came in with a melting point of 48 to 50 °C.
As for `Cn1c(C(=O)NC(CF)Cc2ccccc2)cc2c(O)cccc21` (stereo not drawn), the melting point fell in the range of 161 to 162 °C.
`Cn1cc(C(=O)c2ccc(Cl)cc2)cc1C(=O)CN1CCCCC1` gave a melting point of 129 to 130 °C.
In turn, `CCCCCNc1cc(C(=O)O)cc(S(N)(=O)=O)c1Oc1ccccc1` showed a melting point of 223 to 224 °C.
Under `CC(=O)c1ccc2c(c1)CCc1ccc(C(=O)O)cc1S2(=O)=O` stands 219 to 221 °C.
`COc1ccc(-c2nc(-c3c[nH]c4ccccc34)[nH]c2-c2ccc(OC)cc2)cc1` showed a melting point of 246 °C.
In turn, `CC(=O)OC[C@H]1OCC(=O)[C@@H](OC(C)=O)[C@@H]1OC(C)=O` had a melting point of 86 to 88 °C.
`COc1cc(C=CC(=O)c2ccccc2)ccc1O`: the melting point was in the range of 87 to 88 °C.
In turn, `COC(=O)CCC(=O)c1ccc(OCc2ccsc2)cc1O` showed a melting point of 100 to 102 °C.
`CC(C)(C)[Si](C)(C)OC(CCCOC1CCCCO1)COc1ccc2c(=O)cc(-c3ccccc3)oc2c1` (stereo not drawn) returned a melting point of 138 to 145 °C.
The compound `c1cncc(-c2ccc(N3CCCN(c4ccc(-c5cccnc5)cn4)CC3)nc2)c1` came in with a melting point of 210 to 211 °C.
In turn, `COc1ccccc1C1(c2ccc(N(C)C)cc2)OC(=O)c2cc(N(C)C)ccc21` (stereo not drawn) had a melting point of 215 to 216 °C.
With `COCc1cc(CCCOc2c(Cl)cc(-c3noc(C)n3)cc2Cl)on1`, the melting point lay in the range of 55.5 to 56 °C.
Under `CSC1C(O)C(CO)OC1n1ccc(NC(=O)c2ccccc2)nc1=O` (stereo not drawn) stands 193 to 194 °C.
